Measurements published in PubChem BioAssay (NCI).
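The concentration for 50% growth inhibition is given as GI50. TGI: concentration producing complete growth inhibition.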

Experiments:
Test in all cases: NCI anticancer screen, dose series, 384-well format
786-0 renal = tested on: 786-0 renal
DU-145 prostate = tested on: DU-145 prostate
EKVX NSCLC = tested on: EKVX NSCLC
HL-60(TB) leukemia = tested on: HL-60(TB) leukemia
HOP-92 NSCLC = tested on: HOP-92 NSCLC
HT29 colon = tested on: HT29 colon
OVCAR-5 ovarian = tested on: OVCAR-5 ovarian
OVCAR-8 ovarian = tested on: OVCAR-8 ovarian
SK-MEL-28 melanoma = tested on: SK-MEL-28 melanoma
SN12C renal = tested on: SN12C renal
SNB-75 CNS = tested on: SNB-75 CNS
TK-10 renal = tested on: TK-10 renal
UACC-62 melanoma = tested on: UACC-62 melanoma

SMILES: COc1cc2nccc(Oc3ccc(NC(=O)C4(C(=O)Nc5ccc(F)cc5)CC4)cc3)c2cc1OC
- GI50 (786-0 renal): 4.47 µM
- TGI (786-0 renal): 19 µM
- GI50 (DU-145 prostate): 4.85 µM
- TGI (DU-145 prostate): 31.5 µM
- GI50 (EKVX NSCLC): 4.64 µM
- TGI (EKVX NSCLC): 15.7 µM
- GI50 (HL-60(TB) leukemia): 2.71 µM
- TGI (HL-60(TB) leukemia): 5.24 µM
- GI50 (HOP-92 NSCLC): 1.29 µM
- TGI (HOP-92 NSCLC): 4.93 µM
- GI50 (HT29 colon): 3.17 µM
- TGI (HT29 colon): 12.3 µM
- GI50 (OVCAR-5 ovarian): 2.96 µM
- TGI (OVCAR-5 ovarian): 10.7 µM
- GI50 (OVCAR-8 ovarian): 3.88 µM
- TGI (OVCAR-8 ovarian): 14.6 µM
- GI50 (SK-MEL-28 melanoma): 3.01 µM
- TGI (SK-MEL-28 melanoma): 11.3 µM
- GI50 (SN12C renal): 0.372 µM
- TGI (SN12C renal): 4.71 µM
- GI50 (SNB-75 CNS): 1.29 µM
- TGI (SNB-75 CNS): 4.35 µM
- GI50 (TK-10 renal): 7.66 µM
- TGI (TK-10 renal): 33.7 µM
- GI50 (UACC-62 melanoma): 2.23 µM
- TGI (UACC-62 melanoma): 6.52 µM

SMILES: CN(C)C(=O)c1cc2cnc(Nc3ccc(N4CCNCC4)cn3)nc2n1C1CCCC1
- GI50 (786-0 renal): 6.77 µM
- TGI (786-0 renal): 36 µM
- GI50 (DU-145 prostate): 16.7 µM
- TGI (DU-145 prostate): 43.9 µM
- GI50 (EKVX NSCLC): 30.1 µM
- TGI (EKVX NSCLC): > 73 µM
- GI50 (HL-60(TB) leukemia): 0.866 µM
- TGI (HL-60(TB) leukemia): 26.3 µM
- GI50 (HOP-92 NSCLC): 11.9 µM
- TGI (HOP-92 NSCLC): 57.4 µM
- GI50 (HT29 colon): 24.9 µM
- TGI (HT29 colon): > 51.6 µM
- GI50 (OVCAR-5 ovarian): 10.8 µM
- TGI (OVCAR-5 ovarian): 85.3 µM
- GI50 (OVCAR-8 ovarian): 37.5 µM
- TGI (OVCAR-8 ovarian): 74.9 µM
- GI50 (SK-MEL-28 melanoma): 37.5 µM
- TGI (SK-MEL-28 melanoma): > 66 µM
- GI50 (SN12C renal): 20.3 µM
- TGI (SN12C renal): > 73.2 µM
- GI50 (SNB-75 CNS): 24.5 µM
- TGI (SNB-75 CNS): 55 µM
- GI50 (TK-10 renal): 27.3 µM
- TGI (TK-10 renal): > 100 µM
- GI50 (UACC-62 melanoma): 18.2 µM
- TGI (UACC-62 melanoma): > 63.7 µM

SMILES: O=C(Nc1cccc(C(F)(F)F)c1)Nc1cc(S(=O)(=O)NC2CC2)ccc1-c1ccsc1
- GI50 (786-0 renal): 4.09 µM
- TGI (786-0 renal): 14.3 µM
- GI50 (DU-145 prostate): 6.35 µM
- TGI (DU-145 prostate): 16.4 µM
- GI50 (EKVX NSCLC): 4.79 µM
- TGI (EKVX NSCLC): 15.5 µM
- GI50 (HL-60(TB) leukemia): 1.93 µM
- TGI (HL-60(TB) leukemia): 3.52 µM
- GI50 (HOP-92 NSCLC): 3.36 µM
- TGI (HOP-92 NSCLC): 10.5 µM
- GI50 (HT29 colon): 4.35 µM
- TGI (HT29 colon): 14.9 µM
- GI50 (OVCAR-5 ovarian): 13.8 µM
- TGI (OVCAR-5 ovarian): 26.8 µM
- GI50 (OVCAR-8 ovarian): 3.73 µM
- TGI (OVCAR-8 ovarian): 13.4 µM
- GI50 (SK-MEL-28 melanoma): 10.9 µM
- TGI (SK-MEL-28 melanoma): 22.9 µM
- GI50 (SN12C renal): 4.71 µM
- TGI (SN12C renal): 17.6 µM
- GI50 (SNB-75 CNS): 4.25 µM
- TGI (SNB-75 CNS): 15.6 µM
- GI50 (TK-10 renal): 3.96 µM
- TGI (TK-10 renal): 14.1 µM
- GI50 (UACC-62 melanoma): 7.26 µM
- TGI (UACC-62 melanoma): 19.5 µM
